Source: paper PMC10410819, “Potential antihypertensive activity of novel peptides from green basil leaves” (BMC Complementary Medicine and Therapies, 2023)
Residues, ends and D or L forms follow the SMILES beside them. No end group written: not given here.

Key:
[1] = tested on: L-NAME-treated male Wistar rats; test: Serum lipid profile, glucose, kidney and liver function and ORAC in L-NAME-treated rats; type: in vivo, rat; details: mean, 3 weeks oral gavage, lisinopril 10 mg/kg BW/day, peptides 30 mg/kg BW/day, n = 5
Method: (§1) After 1 week of acclimation, 25 male Wistar rats were separated randomly into two groups of control rat (NC; n = 5) with distilled water and L-NAME-treated rat (n = 20). At this step, distilled water was orally gavaged to NC rat at 1 mL/100 g BW. L-NAME at a final concentration of 40 mg/kg BW in 1 mL distilled water was orally gavage to induce hypertension in rat at a dose of 40 mg/kg BW for 3 weeks. Thereafter, L-NAME treated rats were randomly classified into the following four groups: L-NAME untreated rat (HT; n = 5); L-NAME + lisinopril rat (HTD; n = 5); L-NAME + peptide 1 at 30 mg/kg rat (HTP1; n = 5); and L-NAME + peptide 2 at 30 mg/kg rat (HTP2; n = 5); for the remaining 3 weeks. NC (n = 5) was still orally gavaged with distilled water. The peptides were diluted in distilled water to obtain a final concentration of 30 mg/1 mL and immediately gavaged to rat at a dose of 30 mg/kg BW/day). Lisinopril was diluted in distilled water to obtain a final concentration of 10 mg/1 mL and immediately orally gavaged to rat at a dose of 10 mg/kg BW/day. At the end of the experiment, each rat was fasted for approximately 12–16 h and euthanized with CO2 inhalation. […] The separated serum was collected and preserved at − 80 °C until further analysis. Then, the liver, heart, spleen, and kidneys were collected, trimmed, washed with normal saline, wiped with filter paper, and weighed.
One thousand microlite of serum was used for measuring the lipid profiles, including total cholesterol, triglyceride (TG), low-density lipoprotein (LDL)-cholesterol (C), high-density lipoprotein (HDL)-C, glucose levels, kidney (blood urea nitrogen and creatinine concentrations) and liver function [alanine aminotransaminase (ALT), aspartate transaminase (AST), and alkaline phosphatase ([…])] parameters using the Cobas 6800/8800 systems (Roche Group, Switzerland). ORAC in rat serum was measured with a fluorescent microplate reader at Ex/Em = 480/520 nm, as previously mentioned.

[2] = tested on: L-NAME-treated male Wistar rats; test: Organ weights of L-NAME-treated rats; type: in vivo, rat; details: vs NC group; after 3 weeks treatment
Method: as §1

ACE = molecular target: T1, ACE (Homo sapiens, UniProt P12821); test: ACE inhibitory activity assay kit; type: biochemical; details: synthetic peptides; captopril positive control; read-out: IC50 ACE inhibition
T1 construct: purchased Dojindo Molecular Technology Inc., Kumamoto, Japan
Method: ACE inhibitory activity assay kit (Dojindo Molecular Technology Inc., Kumamoto, Japan) was used for the measurement of ACE inhibition in proteins derived from basil leaves before and after digestion according to the company manual. Briefly, 10 µl of each sample, substrate buffer, and enzyme mixture were mixed and incubated in 96-well plate at 37 °C for 1 h before measuring ACE inhibition at 450 nm of absorption (A). The ACE inhibitory activity was calculated and calculated as follows: inhibitory activity (%) = [(Awithout sample − Awith sample)/(Awithout sample − Ablank)] × 100.

[3] = tested on: L-NAME-treated male Wistar rats; test: Serum angiotensin II peptide (EIA) in L-NAME-treated rats; type: in vivo, rat; details: median (interquartile range); 3 weeks oral gavage; lisinopril 10 mg/kg, peptides 30 mg/kg BW/day
Method: After 1 week of acclimation, 25 male Wistar rats were separated randomly into two groups of control rat (NC; n = 5) with distilled water and L-NAME-treated rat (n = 20). At this step, distilled water was orally gavaged to NC rat at 1 mL/100 g BW. L-NAME at a final concentration of 40 mg/kg BW in 1 mL distilled water was orally gavage to induce hypertension in rat at a dose of 40 mg/kg BW for 3 weeks. Thereafter, L-NAME treated rats were randomly classified into the following four groups: L-NAME untreated rat (HT; n = 5); L-NAME + lisinopril rat (HTD; n = 5); L-NAME + peptide 1 at 30 mg/kg rat (HTP1; n = 5); and L-NAME + peptide 2 at 30 mg/kg rat (HTP2; n = 5); for the remaining 3 weeks. NC (n = 5) was still orally gavaged with distilled water. The peptides were diluted in distilled water to obtain a final concentration of 30 mg/1 mL and immediately gavaged to rat at a dose of 30 mg/kg BW/day). […]
(§2) The levels of nitrite and nitrate, which are metabolites of nitric oxide (NO), were measured using 50 µl of rat serum utilizing the calorimetric method (Nitrite/nitrate Kit, Sigma-Aldrich, 2 Science Park Dr, SG), according to company protocol. Angiotensin II peptide levels were quantified by using EIA kits (Angiotensin II EIA, Sigma-Aldrich, MO, USA), as per the manufacturer’s instructions).

[4] = tested on: L-NAME-treated male Wistar rats; test: Platelet count and white blood cell levels of L-NAME-treated rats; type: in vivo, rat; details: effect of treatment in the L-NAME treated group; 3 weeks
Method: as §1

[5] = tested on: L-NAME-treated male Wistar rats; test: Body weight of L-NAME-treated rats; type: in vivo, rat; details: vs L-NAME-treated rats; 3 weeks treatment
Method: as §1

[6] = tested on: L-NAME-treated male Wistar rats; test: Serum nitrite/nitrate in L-NAME-treated rats; type: in vivo, rat; details: mean ± standard error; 3 weeks oral gavage; lisinopril 10 mg/kg, peptide 30 mg/kg BW/day
Method: as §1, §2

[7] = molecular target: Angiotensin-converting enzyme (UniProt P12821)
Angiotensin-converting enzyme, sequence (P12821 30-1256): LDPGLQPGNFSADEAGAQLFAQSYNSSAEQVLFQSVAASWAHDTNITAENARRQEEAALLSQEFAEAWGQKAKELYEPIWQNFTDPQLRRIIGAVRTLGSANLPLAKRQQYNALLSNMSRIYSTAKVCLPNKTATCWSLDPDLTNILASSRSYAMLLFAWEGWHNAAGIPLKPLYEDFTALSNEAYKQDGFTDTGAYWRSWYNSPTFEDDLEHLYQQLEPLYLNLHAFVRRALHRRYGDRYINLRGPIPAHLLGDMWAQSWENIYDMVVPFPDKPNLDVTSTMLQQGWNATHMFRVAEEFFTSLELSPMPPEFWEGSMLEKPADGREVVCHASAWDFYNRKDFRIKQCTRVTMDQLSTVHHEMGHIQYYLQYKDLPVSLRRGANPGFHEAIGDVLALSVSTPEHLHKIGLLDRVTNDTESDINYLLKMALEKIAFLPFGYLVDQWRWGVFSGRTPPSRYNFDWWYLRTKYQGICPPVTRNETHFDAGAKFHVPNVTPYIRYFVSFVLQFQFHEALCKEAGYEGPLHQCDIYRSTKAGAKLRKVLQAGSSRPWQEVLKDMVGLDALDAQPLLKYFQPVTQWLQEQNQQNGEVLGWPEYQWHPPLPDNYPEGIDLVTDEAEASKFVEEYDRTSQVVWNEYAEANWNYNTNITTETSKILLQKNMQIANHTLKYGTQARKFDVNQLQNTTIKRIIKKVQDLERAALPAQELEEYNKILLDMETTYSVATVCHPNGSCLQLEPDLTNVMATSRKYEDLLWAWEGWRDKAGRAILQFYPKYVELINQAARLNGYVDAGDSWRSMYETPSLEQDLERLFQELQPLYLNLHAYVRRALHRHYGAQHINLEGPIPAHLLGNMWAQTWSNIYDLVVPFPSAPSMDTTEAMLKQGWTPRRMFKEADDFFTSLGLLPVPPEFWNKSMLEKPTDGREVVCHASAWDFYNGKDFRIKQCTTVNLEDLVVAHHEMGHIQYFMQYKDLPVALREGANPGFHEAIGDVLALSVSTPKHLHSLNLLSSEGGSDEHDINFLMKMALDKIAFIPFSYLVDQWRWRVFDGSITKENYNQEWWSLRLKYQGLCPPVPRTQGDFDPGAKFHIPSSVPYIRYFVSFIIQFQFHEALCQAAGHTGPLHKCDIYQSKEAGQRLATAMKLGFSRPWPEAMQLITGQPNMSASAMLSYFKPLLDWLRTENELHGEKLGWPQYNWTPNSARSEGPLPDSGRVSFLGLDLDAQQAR

T1 sequence (P12821 30-1306, species assumed): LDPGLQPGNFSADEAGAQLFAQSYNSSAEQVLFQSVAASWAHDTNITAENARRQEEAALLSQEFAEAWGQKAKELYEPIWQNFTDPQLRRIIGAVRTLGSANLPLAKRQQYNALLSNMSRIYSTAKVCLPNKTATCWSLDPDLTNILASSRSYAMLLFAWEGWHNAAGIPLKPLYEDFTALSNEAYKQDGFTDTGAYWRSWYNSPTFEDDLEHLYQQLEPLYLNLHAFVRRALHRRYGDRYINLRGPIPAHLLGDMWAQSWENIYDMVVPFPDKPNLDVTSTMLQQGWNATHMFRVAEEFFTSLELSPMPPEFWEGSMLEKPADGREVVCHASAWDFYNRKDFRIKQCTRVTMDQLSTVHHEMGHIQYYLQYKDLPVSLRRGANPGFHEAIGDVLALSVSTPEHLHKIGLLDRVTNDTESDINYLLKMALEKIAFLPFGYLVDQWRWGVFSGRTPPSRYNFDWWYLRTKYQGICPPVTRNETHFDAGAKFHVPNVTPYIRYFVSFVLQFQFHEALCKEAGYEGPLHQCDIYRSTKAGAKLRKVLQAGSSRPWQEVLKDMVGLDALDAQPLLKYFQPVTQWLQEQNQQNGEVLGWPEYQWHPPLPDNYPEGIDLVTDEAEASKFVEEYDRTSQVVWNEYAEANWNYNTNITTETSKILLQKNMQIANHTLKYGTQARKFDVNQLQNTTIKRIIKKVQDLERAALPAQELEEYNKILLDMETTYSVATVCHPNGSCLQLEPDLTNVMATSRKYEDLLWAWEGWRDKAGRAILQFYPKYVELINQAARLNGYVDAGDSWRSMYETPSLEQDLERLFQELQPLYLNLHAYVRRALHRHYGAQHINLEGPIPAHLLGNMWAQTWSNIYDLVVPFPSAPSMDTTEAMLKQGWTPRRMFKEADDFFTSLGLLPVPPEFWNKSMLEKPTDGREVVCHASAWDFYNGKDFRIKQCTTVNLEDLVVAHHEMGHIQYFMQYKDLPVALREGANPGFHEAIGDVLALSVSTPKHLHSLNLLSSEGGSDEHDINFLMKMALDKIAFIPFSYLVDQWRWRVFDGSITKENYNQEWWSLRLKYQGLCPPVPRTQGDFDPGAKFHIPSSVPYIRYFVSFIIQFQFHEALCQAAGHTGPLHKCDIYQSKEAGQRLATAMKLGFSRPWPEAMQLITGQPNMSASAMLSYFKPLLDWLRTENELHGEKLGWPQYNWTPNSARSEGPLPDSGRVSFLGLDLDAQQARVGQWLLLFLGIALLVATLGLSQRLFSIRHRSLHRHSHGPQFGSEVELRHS

DSVSASP [Asp-Ser-Val-Ser-Ala-Ser-Pro]
ALP ([1]; serum): 159.00 U/L
ALT ([1]; serum): 38.50 U/L
AST ([1]; serum): 74.00 U/L
BUN ([1]; serum): 20.33 mg/dL
weight of the livers [2]: significantly lower
IC50 (ACE): 117 µM

N[C@@H](Cc1ccc(O)cc1)C(=O)N[C@@H](CO)C(=O)N[C@@H](Cc1ccccc1)C(=O)O [Tyr-Ser-Phe] (H-Tyr-Ser-Phe-OH; N-terminus and C-terminus assumed)
IC50 (ACE): 44.2 µM

LDSKHEAP [Leu-Asp-Ser-Lys-His-Glu-Ala-Pro]
IC50 (ACE): 121 µM

PTTKTNVPPHF [Pro-Thr-Thr-Lys-Thr-Asn-Val-Pro-Pro-His-Phe]
IC50 (ACE): 119 µM

HVLSA [His-Val-Leu-Ser-Ala]
IC50 (ACE): 10 µM

HCGDGDAPY [His-Cys-Gly-Asp-Gly-Asp-Ala-Pro-Tyr]
IC50 (ACE): 103 µM

DLSSAP [Asp-Leu-Ser-Ser-Ala-Pro]
ALP ([1]; serum): 135.00 U/L
ALT ([1]; serum): 31.50 U/L
AST ([1]; serum): 67.00 U/L
BUN ([1]; serum): 19.70 mg/dL
weight of the livers [2]: significantly lower
IC50 (ACE): 4.75 µM

EGSGKGVR [Glu-Gly-Ser-Gly-Lys-Gly-Val-Arg]
IC50 (ACE): 87.2 µM

NCCCC[C@H](N[C@@H](CCc1ccccc1)C(=O)O)C(=O)N1CCC[C@H]1C(=O)O [Lisinopril]
serum concentration of AGE II [3]: 5.19 (4.82) pg/mL
platelet count and white blood cell levels [4]: did not affect
ORAC ([1]; rat serum): 0.19 µmol TE/dl
Cho/HDL ([1]; serum ratio): 2.69
LDL/HDL ([1]; serum ratio): 0.22
ALP ([1]; serum): 129.75 U/L
ALT ([1]; serum): 41.50 U/L
AST ([1]; serum): 67.75 U/L
BUN ([1]; serum): 19.83 mg/dL
Chol ([1]; serum): 86.25 mg/dL
Glucose ([1]; serum): 263.00 mg/dL
HDL ([1]; serum): 32.00 mg/dL
LDL ([1]; serum): 7.00 mg/dL
Tri ([1]; serum): 179.25 mg/dL
VLDL ([1]; serum): 35.75 mg/dL
weight of the livers [2]: significantly lower
effect on rat BWs [5]: not significantly affected
serum concentration of nitrate [6]: 15.05 ± 1.95 ng/µL
serum concentration of nitrite [6]: 16.17 ± 2.99 ng/µL
serum concentration of total nitrate and nitrite (NOx) [6]: 31.22 ± 4.94 ng/µL

Tyr-Ser-Phe (peptide)
IC50 (µM) ACE inhibition (ACE inhibitory activity assay kit, absorbance at 450 nM) [7]: 44.2 µM

B1: Glu-Gly-Ser-Gly-Lys-Gly-Val-Arg (peptide)
peptide: EGSGKGVR
IC50 (µM) ACE inhibition (ACE inhibitory activity assay kit, absorbance at 450 nM) [7]: 87.2 µM

B2: His-Cys-Gly-Asp-Gly-Asp-Ala-Pro-Tyr (peptide)
peptide: HCGDGDAPY
IC50 (µM) ACE inhibition (ACE inhibitory activity assay kit, absorbance at 450 nM) [7]: 103 µM

B3: His-Val-Leu-Ser-Ala (peptide)
peptide: HVLSA
IC50 (µM) ACE inhibition (ACE inhibitory activity assay kit, absorbance at 450 nM) [7]: 10 µM

B4: Asp-Leu-Ser-Ser-Ala-Pro (peptide)
peptide: DLSSAP
IC50 (µM) ACE inhibition (ACE inhibitory activity assay kit, absorbance at 450 nM) [7]: 4.75 µM

B5: Asp-Ser-Val-Ser-Ala-Ser-Pro (peptide)
peptide: DSVSASP
IC50 (µM) ACE inhibition (ACE inhibitory activity assay kit, absorbance at 450 nM) [7]: 117 µM

B6: Leu-Asp-Ser-Lys-His-Glu-Ala-Pro (peptide)
peptide: LDSKHEAP
IC50 (µM) ACE inhibition (ACE inhibitory activity assay kit, absorbance at 450 nM) [7]: 121 µM

B7: Pro-Thr-Thr-Lys-Thr-Asn-Val-Pro-Pro-His-Phe (peptide)
peptide: PTTKTNVPPHF
IC50 (µM) ACE inhibition (ACE inhibitory activity assay kit, absorbance at 450 nM) [7]: 119 µM
